The source of these data is ChEMBL document CHEMBL1128974, “Design, synthesis and X-ray crystallographic studies of [7.3.1] and [8.3.1] macrocyclic FKBP-12 ligands” (Bioorg Med Chem Lett, 1996).

SMILES strings stand for the structures. pKi: −log10 of the molar value.

The target of one assay is T1, Peptidyl-prolyl cis-trans isomerase FKBP1A (Homo sapiens, UniProt P62942). Put plainly: Compound was evaluated for inhibitory activity against human FKBP-12 rotamase; no inhibition.
T1 sequence (P62942 whole entry): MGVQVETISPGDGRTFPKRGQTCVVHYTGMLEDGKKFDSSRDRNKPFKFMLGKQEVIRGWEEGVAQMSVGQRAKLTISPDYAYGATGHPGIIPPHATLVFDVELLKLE
Take `COCC(C)[C@@H]1CC[C@@H](C)[C@](O)(C(=O)C(=O)N2[C@@H]3CCC[C@H]2C(=O)OCC(COCc2ccccc2)COC3=O)C1` (stereo not given in full): the Ki result was “Not Active”.
The same measure, in the same setting: in the case of `CO[C@@H](CC(C)C)[C@@H]1CC[C@@H](C)[C@](O)(C(=O)C(=O)N2[C@@H]3CCC[C@H]2C(=O)OCC(CO)COC3=O)C1` (stereo not given in full) it was “Not Active”.
Still for that read-out and setting: then `CO[C@@H](CC(C)C)[C@@H]1CC[C@@H](C)[C@](O)(C(=O)C(=O)N2[C@@H]3CCC[C@H]2C(=O)OCC(COCc2ccccc2)COC3=O)C1` (stereo not given in full), with “Not Active”.

In the next assay the target is T1, Peptidyl-prolyl cis-trans isomerase FKBP1A. Kind of assay: Compound was evaluated for inhibitory activity against human FKBP-12 rotamase.
By pKi is commonly meant the negative decadic logarithm of the Ki, by convention in mol/L. Compound `COc1cc(C(=O)C(=O)N2[C@@H]3CCC[C@H]2C(=O)OCC(CO[Si](C)(C)C(C)(C)C)COC3=O)cc(OC)c1OC` (stereo not given in full) gave a pKi of 5.82.
On the same count and under the same terms, in the case of `COc1cc(C(=O)C(=O)N2[C@@H]3CCC[C@H]2C(=O)OCCCCOC3=O)cc(OC)c1OC` it was 6.55; in that of `CCC(C)(C)C(=O)C(=O)N1[C@@H]2CCC[C@H]1C(=O)OCCCCOC2=O`, 5.08; in that of `COc1cc(C(=O)C(=O)N2[C@@H]3CCC[C@H]2C(=O)OCC(COCc2ccccc2)COC3=O)cc(OC)c1OC` (stereo not given in full), 5.92.
On to `COCC(C)[C@@H]1CC[C@@H](C)[C@](O)(C(=O)C(=O)N2[C@@H]3CCC[C@H]2C(=O)OCC(CO)COC3=O)C1` (stereo not given in full), for which the pKi is < 4.30.
Same read-out and setting: then `CC(C)[C@@H]1CC[C@@H](C)[C@](O)(C(=O)C(=O)N2[C@@H]3CCC[C@H]2C(=O)OCCCOC3=O)C1`, with 5.09.
On the same count and under the same terms, then `CCC(C)(C)C(=O)C(=O)N1[C@@H]2CCC[C@H]1C(=O)OCCCOC2=O`, with 5.00.
